Measured values as given in patent US7968116B2, “Antitumor agent” (Otsuka Pharmaceutical Co., Ltd., priority 2005, dated 2011).
pIC50: −log10 of the molar value. Read-outs that look alike come from different tables or passages of the source.

System: HT-29 (human) cancer cell line
Test: Cell proliferation inhibitory effect (MTT assay) on cultured cancer cell line HT-29
Assay type: cell-based
Settings: HT-29 cells; for pIC50: incubation at 37° C. for three days, MTT assay, read-out: CPI50 (concentration required for attaining 50% CPI, percent cell proliferation inhibition)
Procedure: A cultured cancer cell line (HT-29 (human)) was inoculated into a 96-well plate (1×10^4 cells/100 μL/well), and subsequently the GlcNAc-cholestanol-compound-containing liposomal formulation or cyclodextrin inclusion complexation prepared in Example 1 was added to the 96-well plate, followed by incubation at 37° C. for three days. Thereafter, the MTT assay was performed, and the number of cells was determined. Percent cell proliferation inhibition was obtained by use of the below-described formula.
Percent cell proliferation inhibition (percent CPI) (%)=(1 −OD of treated cells/OD of non-treated cells)×100 [E1]
OD of treated cells and OD of non-treated cells were measured at 450 nm and 650 nm, respectively (according to the MTT assay).

[1] = Cyclodextrin inclusion complexation

SMILES	pIC50 [1]	pIC50 (Liposomal formulation)	cell proliferation inhibitory effect (in words) (liposomal formulation or cyclodextrin inclusion complexation, three days)
CC(C)CCC[C@@H](C)[C@H]1CC[C@H]2[C@@H]3CC[C@H]4C[C@@H](O)CC[C@]4(C)[C@H]3CC[C@]12C [Chol, cholestanol]	< 3.00	3.45	
CC(C)CCC[C@@H](C)[C@H]1CC[C@H]2[C@@H]3CCC4CC(OC5O[C@H](CO)[C@H](O)[C@H](O)[C@H]5O)CC[C@]4(C)[C@H]3CC[C@]12C (stereo partly drawn) [GalChol, Galp-cholestanol]	4.43	4.90	
CC(=O)N[C@H]1[C@H](O[C@H]2[C@@H](O)[C@@H](CO)O[C@@H](O[C@H]3CC[C@@]4(C)[C@@H](CC[C@@H]5[C@@H]4CC[C@]4(C)[C@@H]([C@H](C)CCCC(C)C)CC[C@@H]54)C3)[C@@H]2O)O[C@H](CO)[C@@H](O)[C@@H]1O [GlcNAcGalChol, GlcNAcβ1,3Galβ-cholestanol]	4.80	4.99	
CC(=O)N[C@H]1[C@H](O[C@H]2CC[C@@]3(C)[C@@H](CC[C@@H]4[C@@H]3CC[C@]3(C)[C@@H]([C@H](C)CCCC(C)C)CC[C@@H]43)C2)O[C@H](CO)[C@@H](O)[C@@H]1O [GlcNacChol, 5-α-cholestan-3β-yl-2-acetamido-2-deoxy-β-D-glucopyranoside]	5.06	4.98	strong cell proliferation inhibitory effect
